Here are results for four compounds from patent US8258127B2, “Methods for treating latent tuberculosis” (Institut National de la Sante et de la Recherche Medicale …, priority 2008, dated 2012).

Assay [1] has as its target T1, LdtMt1 L,D-transpeptidase (Mycobacterium tuberculosis, UniProt O53638). In words: Formation of enzyme-drug adducts between LdtMt1 and β-lactams (electrospray mass spectrometry). The format is binding. Conditions: LdtMt1 12.5 μM, β-lactam 125 μM, 1 h at 37° C.; for Average mass Observated of LdtMt1-β-lactam adduct: ND: not detected, native protein 24,584.4. The method, then: LdtMt1 (12.5 μM) was incubated without antibiotic (left panel) or with 125 μM imipenem (right panel). Proteins and adducts were detected by electrospray mass spectrometry. Peaks at m/z 848.75 and 879.03 correspond to the [M+29H]^29+ and [M+28H]^28+ ions of the native protein, respectively (deduced average mass of 24,584.4). Peaks at m/z 859.08 and 889.65 correspond to the [M+29H]^29+ and [M+28H]^28+ ions of the LdtMt1-imipenem adduct (deduced average mass of 24,883.5).
The formation of enzyme-drug adducts was tested by incubating LdtMt1 (12.5 μM) with β-lactams (125 μM) for 1 h at 37° C. in buffer A. The reaction mixture was dialyzed against water for 30 min and the average mass of proteins and protein-β-lactam adducts was determined as described (Mainardi et al., 2007, Supra).
To gain insight into the mechanism of LdtMt1 inhibition by β-lactams, binding of the drugs to the enzyme was tested by electrospray mass spectrometry. […] Adducts matching increments of the average mass of other carbapenems, meropenem and ertapenem, were also detected (Table 2 hereunder).

Assay [2] has as its target T1, LdtMt1 L,D-transpeptidase. In words: Inhibition of LdtMt1 L,D-transpeptidase activity by β-lactams (formation of mDap3→mDap3 cross-linked dimers, mass spectrometry). The format is biochemical. Conditions: for blocking of the L,D-transpeptidase enzyme (summary in words): summary statement of the description. The method, then: The disaccharide-tetrapeptide containing amidated meso-diaminopimelic acid (GlcNAc-MurNAc-L-Ala^1-D-iGln^2-mesoDapNH2^3-D-Ala^4) was purified from C. jeikeium strain CIP103337 and the concentration w as determined by amino acid analysis after acid hydrolysis (Arbeloa et al., 2007, J. Biol. Chem., Vol. 279: 41546-41556; Auger et al., FEMS Microbiol. Lett., Vol. 219: 115-119). In vitro formation of muropeptide dimers was tested in 10 μL of 50 mM Tris-HCl (pH 7.5) containing 300 mM NaCl, 11 μM LdtMt1, and 280 μM disaccharide-tetrapeptide. The reaction mixture was incubated for 2 hours at 37° C., treated with ammonium hydroxide, and the resulting lactoyl-peptides were analyzed by nanoelectrospray tandem mass spectrometry using N2 as the collision gas (Arbeloa et al., 2007, Supra).
LdtMt1 (12.5 μM) was pre-incubated for 20 min at 37° C. with ampicillin (Bristol-Myers), ceftriaxone (Roche Applied Science), and imipenem (Merck Sharpe and Dhome-Chibret) in 50 mM Tris-HCl (pH 7.5) containing 300 mM NaCl (buffer A). The L,D-transpeptidation reaction was started by the addition of the disaccharide-tetrapeptide (final concentration 280 μM) and allowed to proceed for 2 hours at 37° C. The reaction products were detected by mass spectrometry (Mainardi et al., 2007, J. Biol. Chem., Vol. 282: 30414-30422).
To investigate inhibition of the L,D-transpeptidase activity of LdtMt1 by β-lactams, the formation of dimers containing mDap^3→mDap^3 cross-links was tested in the presence of various drug concentrations.

Where [3] appears, read: LdtMt1 12.5 μM, pre-incubated 20 min at 37° C., disaccharide-tetrapeptide 280 μM, 2 hours.

A value given as a limit tells only on which side of the number the result lay.

T1 sequence (O53638 32-251 limits assumed): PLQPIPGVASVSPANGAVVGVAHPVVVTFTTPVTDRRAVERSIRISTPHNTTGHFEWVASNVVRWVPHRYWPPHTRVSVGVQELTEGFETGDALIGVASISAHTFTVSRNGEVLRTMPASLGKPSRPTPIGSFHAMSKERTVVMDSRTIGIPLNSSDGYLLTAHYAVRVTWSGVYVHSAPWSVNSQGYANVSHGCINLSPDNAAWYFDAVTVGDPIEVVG

Take `CO/N=C(\C(=O)N[C@@H]1C(=O)N2C(C(=O)O)=C(CSc3nc(=O)c(=O)[nH]n3C)CS[C@H]12)c1csc(N)n1` [Ceftriaxone, ceftriaxone]: the “formation of adduct with LdtMt1 (in words)” value (shortened to “formation of adduct”) in assay [1] was “No adduct was detected”. In addition, in assay [2] (setting [3]), the “drug concentration required for full inhibition of enzyme activity” value was 360 µM.
With `CC1(C)S[C@@H]2[C@H](NC(=O)[C@H](N)c3ccccc3)C(=O)N2[C@H]1C(=O)O` [Ampicillin, ampicillin], the “formation of adduct” value in assay [1] is “No adduct was detected”. For the same compound, the “highest tested concentration without inhibition of LdtMt1” value in assay [2] (setting [3]) is recorded as over 5.7 mM. Further, in assay [2], the “blocking of the L,D-transpeptidase enzyme (summary in words)” value was “inactive”.
Take `C[C@@H](O)[C@H]1C(=O)N2C(C(=O)O)=C(S[C@@H]3CN[C@H](C(=O)N(C)C)C3)[C@H](C)[C@H]12` [Meropenem, meropenem]: in assay [1], the “formation of adduct” value is recorded as “detected” and the “Average mass Observated of LdtMt1-β-lactam adduct” value is reported as 24,967.8. Besides, the “blocking of the L,D-transpeptidase enzyme (summary in words)” value in assay [2] is listed as “block the said L,D-transpeptidase enzyme”.
Taken in the same sequence, the figures for `C[C@@H](O)[C@H]1C(=O)N2C(C(=O)O)=C(S[C@@H]3CN[C@H](C(=O)Nc4cccc(C(=O)O)c4)C3)[C@H](C)[C@H]12` [Ertapenem, ertapenem] were “detected”, 25,059.9 and “block the said L,D-transpeptidase enzyme”.
